Test [1] addresses T1, CXCR4 (Homo sapiens, UniProt P61073). As to the kind of experiment: HPB-ALL CXCR4 competitive binding assay (12G5 binding assay). Also noted: HPB-ALL cells were maintained in RPMI-1640 (Gibico) supplemented with 10% FBS (Hyclone); endogenous in cells; host or cells: HPB-ALL cells. Conditions: HPB-ALL cells; competition with APC-conjugated anti-human CXCR4 clone 12G5 at its EC80; 4° C. for 3 h; FACS. As for the experimental part:
HPB-ALL CXCR4 Competitive Binding Assay
HPB-ALL cells were maintained in RPMI-1640 (Gibico) supplemented with 10% FBS (Hyclone). APC-conjugated anti-human CXCR4 was from Sungene. EC80 was first determined for 12G5 binding to CXCR4. Then the compounds for testing were added into 96-well plates serially diluted at a ratio of 1:3. Cells were washed once with ice-cold assay buffer (DPBS+2% HI-FBS) and then re-suspended in the same buffer at a final concentration of 1×10^6/mL. Cell suspension was then added into the wells and with the addition of APC-conjugated anti-human CXCR4 clone 12G5 at its EC80 determined. The mix of cell, compounds and APC-conjugated anti-human CXCR4 were incubated at 4° C. for 3 h before addition of 100 μL of 4% PFA. Cells were then washed once and resuspended in assay buffer and examined by FACS. The percent (%) effect at each concentration of compound was calculated and relative to the amount of calcium produced in the positive and negative control wells contained within each assay plate. The concentrations and % effect values for tested compounds were plotted and the concentration of compound required for 50% effect (IC50) was determined. Tables 2 summarize results of the CXCR4 competitive binding assay for selected compounds disclosed in the present disclosure. FIGS. 1-2 depict the IC50 curves of compounds A42 and A43.

Test [2] concerns the target T1, CXCR4. Description: FLIPR Tetra calcium mobilization assay. Conditions: Human CD4+ T-Cells; CXCL12 added; FLIPR Calcium 4 assay kit. Format: cell-based. As for the experimental part: FLIPR Tetra Calcium Mobilization Assay The FLIPR Tetra calcium mobilization assay was performed by HD Bioscience. Briefly, The Molecular Devices, Fluorescent Imaging Plate Reader (FLIPR) Tetra was used in this assay. Excitation was achieved through unique placement of LED's within the instrument and emission captured by a CCD camera (EMCCD camera for FI and ICCD camera for luminescence). The homogeneous FLIPR Calcium 4 assay kit from Molecular Devices was used as the fluorescence reagent. Compounds were solubilized in 100% dimethyl sulfoxide (DMSO) to a concentration of 30 mM. A 10-point, 4-fold, intermediate dilution series was created in 100% DMSO with a top concentration of 4 mM and a bottom concentration of 0.01 μM. A near assay ready, direct dilution plate ([…]) was prepared from this compound dilution plate by transferring 1 μL of each dilution of compound in 100% DMSO to a Greiner #781201 plate. In addition, each […] plate also contained positive and negative control wells to define the upper and lower limits for the assay signal. The final assay concentration range of compound was 10 μM to 0.035 nM in 0.5% DMSO. Human CD^4+ T-Cells were isolated from human whole blood and subsequently activated and expanded using a CD3/CD28 expansion kit (Life Technologies). The cells were frozen in ThermoFisher-formulated Recovery Cell Culture Freezing Medium containing 10% Dimethyl sulfoxide (DMSO) and 10% Fetal Bovine Serum (FBS) (ThermoFisher Catalog No. 10100147). When used, cells were resuspended using room temperature 1× HBSS/20 mM HEPES/0.005% P-104 assay buffer, adjusted the volume of the suspension to achieve a cell concentration of 2.5×10^6 cells/mL. 2× Calcium 4 dye (20 μL/well) were added and the mixture were centrifuged briefly ( 10 s) and stopped when it reached 1000 rpm. The plates were allowed to equilibrate before compounds and CXCL12 were added to the plates. The raw data were analyzed using Abase. The percent (%) effect at each concentration of compound was calculated by Abase and was based on and relative to the amount of calcium produced in the positive and negative control wells contained within each assay plate. The concentrations and % effect values for tested compounds were plotted by Abase and the concentration of compound required for 50% effect (IC50) was determined with a four-parameter logistic dose response equation. FIGS. 3 and 4 summarize the results of Compounds A78 and A83 in the calcium mobilization assay.
(Calcium assays in cells follow changes in intracellular calcium, usually with a dye or a luminescent sensor.)

Data on 22 compounds can be found in patent publication US11396501B2, “Heteroaryl compounds as CXCR4 inhibitors, composition and method using the same” (CGENETECH (SUZHOU, CHINA) CO., LTD., priority 2017, dated 2022).

T1 sequence (P61073 whole entry): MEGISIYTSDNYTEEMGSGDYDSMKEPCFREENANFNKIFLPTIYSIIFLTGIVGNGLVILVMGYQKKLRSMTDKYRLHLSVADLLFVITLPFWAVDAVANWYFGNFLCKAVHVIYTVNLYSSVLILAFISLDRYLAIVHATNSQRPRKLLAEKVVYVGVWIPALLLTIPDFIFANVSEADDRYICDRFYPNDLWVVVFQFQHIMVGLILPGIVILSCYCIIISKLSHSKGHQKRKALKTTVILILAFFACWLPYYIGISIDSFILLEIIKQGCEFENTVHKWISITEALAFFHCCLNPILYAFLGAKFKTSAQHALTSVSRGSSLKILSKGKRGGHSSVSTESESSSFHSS

In the case of `Cc1nc(CN(C)c2c(C)ccc3cccnc23)cc(N2CCN(C)CC2)n1` [Compound D14], the half-maximal inhibitory concentration (IC50) at CXCR4 [1] was determined as 57 nM; on CXCR4 [2] it was 0.3 nM. For `CCN(Cc1cc(N2CCN(C)CC2)nc(C)n1)c1cccc2cccnc12` [Compound D25], the half-inhibitory concentration (IC50) is 151 nM at CXCR4 [1] and 16 nM at CXCR4 [2]. In the case of `Cc1nc(CN(C)c2cccc3cccnc23)cc(N2CCN(C)[C@H](C)C2)n1` [Compound D4], the IC50 is 55 nM at CXCR4 [1] and 0.14 nM on CXCR4 [2]. The matching figures for `Cc1nc(CN(C)C2=C(F)CCc3cccnc32)cc(N2CCN(C)CC2)n1` [Compound D1, 7-fluoro-N-methyl-N-((2-methyl-6-(4-methylpiperazin-1-yl)pyrimidin-4-yl)methyl)-5,6-dihydroquinolin-8-amine]: 18 nM and 1.2 nM. As for `Cc1nc(CN(C)c2cccc3cccnc23)c(C#N)c(N2CCN(C)CC2)n1` [Compound D36], the IC50 at CXCR4 [1] turned out to be 1170 nM; at CXCR4 [2] it was 3.6 nM. Regarding `Cc1nc(CN(CCCCN)c2cccc3cccnc23)cc(N2CCN(C)CC2)n1` [Compound D28], the half-maximal inhibitory concentration (IC50) at CXCR4 [1] came out at 338 nM; on CXCR4 [2], 0.21 nM. For the compound `CN1CCN(c2cc(CN(C)C3CCCc4cccnc43)ncn2)CC1` (stereo not drawn) [Compound A1, N-methyl-N-((6-(4-methylpiperazin-1-yl)pyrimidin-4-yl)methyl)-5,6,7,8-tetrahydroquinolin-8-amine], the half-maximal inhibitory concentration (IC50) on CXCR4 [1] worked out at 45 nM; on CXCR4 [2] it was 4.5 nM. For `Cc1nc(CN(C)[C@H]2CCCc3cccnc32)c(C)c(N2CCN(C)CC2)n1` [Compound A61], the IC50 came out at 8.8 nM at CXCR4 [1] and 0.024 nM on CXCR4 [2]. On to `CN1CCCN(c2cc(CN(C)C3CCCc4cccnc43)ncn2)CC1` (stereo not drawn) [Compound A22], for which the IC50 at CXCR4 [1] is 32 nM; on CXCR4 [2] it was 3.4 nM. For `Cc1nc(CN(C)c2cccc3cccnc23)cc(N2CCN(C)CC2)n1` [Compound D2, N-methyl-N-((2-methyl-6-(4-methylpiperazin-1-yl)pyrimidin-4-yl)methyl)quinolin-8-amine], the half-inhibitory concentration (IC50) on CXCR4 [1] was 65 nM; on CXCR4 [2], 0.24 nM.

As for `Cc1nc(CN(C)c2ccc(Br)c3cccnc23)cc(N2CCN(C)CC2)n1` [Compound D41], the IC50 at CXCR4 [2] was determined as 6.3 nM. Regarding `Cc1nc(CN(C)[C@H]2CCCc3cccnc32)cc(N2CCN(C)CC2)n1` [Compound A42], the 50% inhibitory concentration (IC50) on CXCR4 [1] was found to be 9.8 nM; at CXCR4 [2], 0.021 nM.

For `Cc1nc(CN(C)c2cc(Br)cc3cccnc23)cc(N2CCN(C)CC2)n1` [Compound D45], the IC50 on CXCR4 [2] is 3 nM.

Regarding `COc1cccnc1[C@H](C)N(C)Cc1cc(N2CCN(C)CC2)nc(C)n1` [Compound A92], the IC50 on CXCR4 [2] came to 118 nM. For `Cc1nc(CN(C)c2cc(F)c(F)c3cccnc23)cc(N2CCN(C)CC2)n1` [Compound D20], the half-maximal inhibitory concentration (IC50) at CXCR4 [1] was found to be 675 nM; on CXCR4 [2], 3.1 nM. `Cc1nc(CN(C)c2cncc3cccnc23)cc(N2CCN(C)CC2)n1` [Compound D22, N-methyl-N-((2-methyl-6-(4-methylpiperazin-1-yl)pyrimidin-4-yl)methyl)-1,6-naphthyridin-8-amine]: at CXCR4 [2], the IC50 is 965 nM. For the compound `Cc1nc(CN(C)[C@@H](C)c2ccccn2)cc(N2CCN(C)CC2)n1` [Compound A75, (S)-N-methyl-N-((2-methyl-6-(4-methylpiperazin-1-yl)pyrimidin-4-yl)methyl)-1-(pyridin-2-yl)ethan-1-amine], the half-maximal inhibitory concentration (IC50) turned out to be 15 nM at CXCR4 [1] and 0.09 nM on CXCR4 [2]. As to `Cc1nc(CN(C)c2cccc3cccnc23)c(F)c(N2CCN(C)CC2)n1` [Compound D34], the 50% inhibitory concentration (IC50) on CXCR4 [2] was determined as 0.83 nM. In the case of `Cc1nc(CN(C)[C@@H](C)c2ccccn2)cc(N2CCN3CCC[C@H]3C2)n1` [Compound A79], at CXCR4 [2], the IC50 came out at 0.22 nM. With `Cc1nc(CN(CCCC(=O)O)c2cccc3cccnc23)cc(N2CCN(C)CC2)n1` [Compound D30, 4-(((2-methyl-6-(4-methylpiperazin-1-yl)pyrimidin-4-yl)methyl)(quinolin-8-yl)amino)butanoic acid], the IC50 at CXCR4 [1] turned out to be 3820 nM; at CXCR4 [2], 9.3 nM.

`Cc1nc(CN(C)c2cccc3cccnc23)c(C)c(N2CCN(C)CC2)n1` [Compound D33]: on CXCR4 [2], the IC50 turned out to be 0.51 nM. The same measure, in the same setting: the same measure for `Cc1nc(CN(C)c2cccc3cccnc23)cc(N2CCN(C3CC3)CC2)n1` [Compound D8]: 1.4 nM.

In general, IC50 refers to the concentration that gives 50% inhibition.
